What all share (format): binding
The target in one assay is T1, TNK1 (Homo sapiens, UniProt Q13470).
T1 construct: purchased DiscoveRx (KINOMEscan service)
T1 sequence (Q13470 1-666): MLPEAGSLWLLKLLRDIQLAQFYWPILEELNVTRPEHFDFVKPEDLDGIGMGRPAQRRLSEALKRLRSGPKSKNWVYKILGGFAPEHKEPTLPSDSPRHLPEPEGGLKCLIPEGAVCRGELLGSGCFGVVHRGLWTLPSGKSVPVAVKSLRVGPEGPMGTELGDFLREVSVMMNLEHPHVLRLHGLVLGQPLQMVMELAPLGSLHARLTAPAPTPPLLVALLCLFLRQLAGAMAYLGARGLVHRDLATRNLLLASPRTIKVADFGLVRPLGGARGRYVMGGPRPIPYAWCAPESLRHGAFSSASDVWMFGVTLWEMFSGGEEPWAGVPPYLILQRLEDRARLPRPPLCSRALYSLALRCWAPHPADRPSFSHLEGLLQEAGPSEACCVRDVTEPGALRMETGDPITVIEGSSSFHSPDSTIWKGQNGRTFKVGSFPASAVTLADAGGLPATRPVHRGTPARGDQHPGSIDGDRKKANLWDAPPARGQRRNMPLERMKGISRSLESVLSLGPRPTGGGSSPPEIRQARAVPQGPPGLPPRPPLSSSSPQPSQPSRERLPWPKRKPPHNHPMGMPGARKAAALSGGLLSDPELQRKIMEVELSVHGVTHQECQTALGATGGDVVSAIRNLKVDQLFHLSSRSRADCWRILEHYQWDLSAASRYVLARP
The following applies: for remaining binding at 10 µM: read-out: Percent control; for Percent control: 10 μM.

The next assay concerns the target T2, MUSK (Homo sapiens, UniProt O15146).
T2 construct: purchased DiscoveRx KINOMEscan
T2 sequence (O15146 24-869): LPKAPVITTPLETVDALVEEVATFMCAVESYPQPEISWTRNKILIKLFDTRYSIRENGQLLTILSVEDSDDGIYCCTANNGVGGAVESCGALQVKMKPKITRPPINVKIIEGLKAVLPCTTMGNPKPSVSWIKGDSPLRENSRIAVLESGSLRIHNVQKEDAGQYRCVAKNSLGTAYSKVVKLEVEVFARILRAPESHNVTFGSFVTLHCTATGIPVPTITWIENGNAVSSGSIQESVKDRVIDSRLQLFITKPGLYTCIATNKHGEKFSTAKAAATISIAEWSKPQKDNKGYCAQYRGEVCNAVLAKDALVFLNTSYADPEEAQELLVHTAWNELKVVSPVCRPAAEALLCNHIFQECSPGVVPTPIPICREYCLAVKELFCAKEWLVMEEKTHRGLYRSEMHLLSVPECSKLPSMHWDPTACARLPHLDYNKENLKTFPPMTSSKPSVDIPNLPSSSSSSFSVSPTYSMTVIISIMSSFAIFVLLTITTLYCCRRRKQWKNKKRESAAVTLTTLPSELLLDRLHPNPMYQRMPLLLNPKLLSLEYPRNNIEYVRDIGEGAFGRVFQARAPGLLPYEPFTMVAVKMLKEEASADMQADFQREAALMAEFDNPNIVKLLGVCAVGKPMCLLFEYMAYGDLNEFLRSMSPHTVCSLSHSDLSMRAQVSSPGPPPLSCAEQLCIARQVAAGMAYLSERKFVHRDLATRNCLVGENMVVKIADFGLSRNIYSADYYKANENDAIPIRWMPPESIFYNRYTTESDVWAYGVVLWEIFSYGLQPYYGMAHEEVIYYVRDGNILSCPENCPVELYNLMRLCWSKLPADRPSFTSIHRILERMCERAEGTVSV
To be noted: for remaining binding at 10 µM: read-out: Percent control.

For a further assay, the target named is T3, TRKA (Homo sapiens, UniProt P04629).
T3 construct: purchased DiscoveRx (KINOMEscan service)
T3 sequence (P04629 33-796): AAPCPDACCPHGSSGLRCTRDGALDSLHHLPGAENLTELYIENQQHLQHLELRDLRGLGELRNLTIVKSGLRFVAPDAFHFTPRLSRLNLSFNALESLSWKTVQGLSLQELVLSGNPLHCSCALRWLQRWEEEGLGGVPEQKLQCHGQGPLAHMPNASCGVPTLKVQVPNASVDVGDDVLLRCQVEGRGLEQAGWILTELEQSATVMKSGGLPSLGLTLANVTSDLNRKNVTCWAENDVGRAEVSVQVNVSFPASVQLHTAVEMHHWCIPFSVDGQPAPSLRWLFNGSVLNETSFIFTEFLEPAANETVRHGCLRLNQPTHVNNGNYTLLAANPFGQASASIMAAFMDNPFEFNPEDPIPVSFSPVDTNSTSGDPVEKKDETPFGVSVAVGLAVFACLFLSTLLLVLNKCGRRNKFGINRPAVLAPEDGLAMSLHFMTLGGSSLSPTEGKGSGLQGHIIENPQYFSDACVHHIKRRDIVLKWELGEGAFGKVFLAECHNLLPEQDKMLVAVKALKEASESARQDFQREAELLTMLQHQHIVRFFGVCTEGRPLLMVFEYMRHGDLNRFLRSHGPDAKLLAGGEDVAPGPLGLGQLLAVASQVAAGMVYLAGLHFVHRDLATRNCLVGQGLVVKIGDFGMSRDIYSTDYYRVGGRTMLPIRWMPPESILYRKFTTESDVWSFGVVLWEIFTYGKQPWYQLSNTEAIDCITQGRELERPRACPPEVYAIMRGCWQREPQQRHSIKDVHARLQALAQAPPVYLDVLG
The following applies: for remaining binding at 10 µM: read-out: Percent control.

For the next assay, the target named is T4, TEC (Homo sapiens, UniProt P42680).
T4 construct: purchased DiscoveRx (KINOMEscan service)
T4 sequence (P42680 1-631): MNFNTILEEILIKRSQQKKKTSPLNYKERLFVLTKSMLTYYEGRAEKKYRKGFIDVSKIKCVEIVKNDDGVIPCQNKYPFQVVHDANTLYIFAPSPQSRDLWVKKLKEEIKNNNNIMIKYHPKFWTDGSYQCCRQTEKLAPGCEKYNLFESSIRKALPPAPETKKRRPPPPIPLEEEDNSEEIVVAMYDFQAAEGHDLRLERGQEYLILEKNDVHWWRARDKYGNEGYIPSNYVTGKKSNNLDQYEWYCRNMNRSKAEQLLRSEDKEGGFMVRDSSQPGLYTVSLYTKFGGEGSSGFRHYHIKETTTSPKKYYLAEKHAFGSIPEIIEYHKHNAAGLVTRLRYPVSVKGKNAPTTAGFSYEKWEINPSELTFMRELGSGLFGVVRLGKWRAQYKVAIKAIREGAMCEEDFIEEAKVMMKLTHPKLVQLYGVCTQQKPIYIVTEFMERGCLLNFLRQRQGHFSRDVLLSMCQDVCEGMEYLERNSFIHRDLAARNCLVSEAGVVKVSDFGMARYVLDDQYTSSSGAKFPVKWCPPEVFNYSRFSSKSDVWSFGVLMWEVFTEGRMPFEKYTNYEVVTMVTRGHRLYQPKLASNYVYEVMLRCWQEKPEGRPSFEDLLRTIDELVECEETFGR
To be noted: for remaining binding at 10 µM: read-out: Percent control.

A further assay has as its target T5, INSRR (Homo sapiens, UniProt P14616).
T5 construct: purchased DiscoveRx KINOMEscan
The following applies: for remaining binding at 10 µM: read-out: Percent control.

Another assay has as its target T6, PYK2 (Homo sapiens, UniProt Q14289).
T6 construct: purchased DiscoveRx KINOMEscan
To be noted: for remaining binding at 10 µM: read-out: Percent control.

The next assay addresses T7, FGFR4 (Homo sapiens, UniProt P22455).
T7 construct: purchased DiscoveRx KINOMEscan
To be noted: for remaining binding at 10 µM: read-out: Percent control.

In another assay the target is T8, INSR (Homo sapiens, UniProt P06213).
T8 construct: purchased DiscoveRx KINOMEscan
T8 sequence (P06213 28-1382): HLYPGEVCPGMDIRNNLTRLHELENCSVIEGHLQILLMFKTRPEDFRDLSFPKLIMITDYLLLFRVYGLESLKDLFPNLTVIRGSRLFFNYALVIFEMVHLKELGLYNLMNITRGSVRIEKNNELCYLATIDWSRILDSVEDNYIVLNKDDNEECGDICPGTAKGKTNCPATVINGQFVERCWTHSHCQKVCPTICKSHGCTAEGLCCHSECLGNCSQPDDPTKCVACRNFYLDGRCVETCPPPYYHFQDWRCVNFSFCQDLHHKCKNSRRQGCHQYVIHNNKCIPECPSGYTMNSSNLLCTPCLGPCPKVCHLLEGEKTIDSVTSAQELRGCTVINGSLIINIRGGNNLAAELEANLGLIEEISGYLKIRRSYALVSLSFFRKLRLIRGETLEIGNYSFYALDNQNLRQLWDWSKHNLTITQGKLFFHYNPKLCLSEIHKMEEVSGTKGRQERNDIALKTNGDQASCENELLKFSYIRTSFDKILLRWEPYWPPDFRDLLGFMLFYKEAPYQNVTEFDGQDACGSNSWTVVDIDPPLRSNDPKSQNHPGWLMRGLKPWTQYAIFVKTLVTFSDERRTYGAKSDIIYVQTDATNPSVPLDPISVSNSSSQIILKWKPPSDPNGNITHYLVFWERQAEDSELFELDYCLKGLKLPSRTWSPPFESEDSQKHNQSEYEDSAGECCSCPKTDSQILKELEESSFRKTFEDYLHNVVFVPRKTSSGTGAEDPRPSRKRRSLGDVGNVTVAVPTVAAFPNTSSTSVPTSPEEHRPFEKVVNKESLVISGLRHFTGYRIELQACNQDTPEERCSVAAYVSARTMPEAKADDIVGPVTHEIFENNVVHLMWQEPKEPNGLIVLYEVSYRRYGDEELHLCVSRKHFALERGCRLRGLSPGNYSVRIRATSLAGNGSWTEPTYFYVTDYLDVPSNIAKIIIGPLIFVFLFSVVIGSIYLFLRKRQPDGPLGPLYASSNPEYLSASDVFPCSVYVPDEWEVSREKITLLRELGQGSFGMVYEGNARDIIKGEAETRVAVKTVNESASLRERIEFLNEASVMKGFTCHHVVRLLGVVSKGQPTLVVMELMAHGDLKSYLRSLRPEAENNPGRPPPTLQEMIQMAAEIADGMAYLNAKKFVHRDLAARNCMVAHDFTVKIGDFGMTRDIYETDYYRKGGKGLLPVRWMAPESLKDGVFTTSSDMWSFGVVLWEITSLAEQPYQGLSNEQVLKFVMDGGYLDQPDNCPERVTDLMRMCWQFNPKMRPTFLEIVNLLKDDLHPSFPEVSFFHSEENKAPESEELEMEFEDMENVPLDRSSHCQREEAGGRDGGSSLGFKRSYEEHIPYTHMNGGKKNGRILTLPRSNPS
To be noted: for remaining binding at 10 µM: read-out: Percent control.

Among the data in publication PMC4858680, “A platinum-based hybrid drug design approach to circumvent acquired resistance to molecular targeted tyrosine kinase inhibitors” (Scientific Reports, 2016) are remaining binding and Percent control values, retold here.

Where two headings read alike, the source gives them in different places.

T6 sequence (Q14289 whole entry): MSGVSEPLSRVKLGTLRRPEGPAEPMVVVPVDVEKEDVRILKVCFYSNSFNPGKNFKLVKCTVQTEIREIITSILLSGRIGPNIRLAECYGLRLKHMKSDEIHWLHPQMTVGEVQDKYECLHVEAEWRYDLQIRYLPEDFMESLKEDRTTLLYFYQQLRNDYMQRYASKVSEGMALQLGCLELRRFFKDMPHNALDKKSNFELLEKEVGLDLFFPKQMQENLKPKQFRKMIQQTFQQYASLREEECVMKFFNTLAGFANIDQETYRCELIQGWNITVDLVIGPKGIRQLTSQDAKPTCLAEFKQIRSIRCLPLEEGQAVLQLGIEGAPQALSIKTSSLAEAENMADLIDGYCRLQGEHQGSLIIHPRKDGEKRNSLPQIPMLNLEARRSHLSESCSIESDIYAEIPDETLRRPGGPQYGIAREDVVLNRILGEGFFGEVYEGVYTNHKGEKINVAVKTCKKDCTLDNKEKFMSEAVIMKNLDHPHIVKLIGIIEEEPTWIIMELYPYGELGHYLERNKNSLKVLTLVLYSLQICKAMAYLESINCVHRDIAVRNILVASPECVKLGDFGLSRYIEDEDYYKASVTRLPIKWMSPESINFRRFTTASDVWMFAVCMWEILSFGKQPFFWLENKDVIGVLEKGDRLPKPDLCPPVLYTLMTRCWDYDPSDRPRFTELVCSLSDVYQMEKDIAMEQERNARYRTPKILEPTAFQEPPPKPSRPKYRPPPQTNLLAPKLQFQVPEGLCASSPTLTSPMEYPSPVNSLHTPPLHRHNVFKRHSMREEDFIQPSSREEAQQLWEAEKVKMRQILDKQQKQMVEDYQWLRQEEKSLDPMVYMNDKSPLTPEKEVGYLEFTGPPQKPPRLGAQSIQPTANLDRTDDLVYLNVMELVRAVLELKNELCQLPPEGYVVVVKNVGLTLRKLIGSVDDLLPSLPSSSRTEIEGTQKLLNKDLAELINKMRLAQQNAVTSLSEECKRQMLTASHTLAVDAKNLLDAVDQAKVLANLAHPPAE
T7 sequence (P22455 22-802): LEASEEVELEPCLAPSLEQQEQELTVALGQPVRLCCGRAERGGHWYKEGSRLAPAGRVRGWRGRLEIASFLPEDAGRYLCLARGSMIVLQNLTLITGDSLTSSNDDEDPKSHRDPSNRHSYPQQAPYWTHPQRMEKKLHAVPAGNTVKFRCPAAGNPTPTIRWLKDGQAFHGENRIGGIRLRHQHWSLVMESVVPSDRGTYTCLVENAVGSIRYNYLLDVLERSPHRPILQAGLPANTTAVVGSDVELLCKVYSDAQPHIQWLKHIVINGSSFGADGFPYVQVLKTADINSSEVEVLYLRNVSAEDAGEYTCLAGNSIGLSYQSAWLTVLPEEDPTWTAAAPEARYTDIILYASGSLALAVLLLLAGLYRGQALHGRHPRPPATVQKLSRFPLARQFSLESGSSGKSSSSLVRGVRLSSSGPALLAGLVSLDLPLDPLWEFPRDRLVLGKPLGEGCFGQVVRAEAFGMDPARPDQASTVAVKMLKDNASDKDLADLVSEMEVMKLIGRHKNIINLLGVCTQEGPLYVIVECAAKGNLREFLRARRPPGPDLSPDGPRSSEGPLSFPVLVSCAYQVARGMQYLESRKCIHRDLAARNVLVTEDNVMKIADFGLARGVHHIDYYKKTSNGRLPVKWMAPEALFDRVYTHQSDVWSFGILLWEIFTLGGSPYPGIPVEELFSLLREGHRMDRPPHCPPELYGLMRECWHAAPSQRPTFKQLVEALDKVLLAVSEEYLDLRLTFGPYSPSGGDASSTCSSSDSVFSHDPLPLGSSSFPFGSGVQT

On to `COc1cc2c(Nc3ccc(Br)cc3F)ncnc2cc1OCC1CCN(C)CC1` [Vandetanib, reference compound], for which the remaining binding at 10 µM on TNK1 was 100%; on MUSK (MUSK, 10 μM) it was 100%; on TRKA (TRKA, 10 μM) it was 100%; at TEC (TEC, 10 μM), 100%; at INSRR (INSRR, 10 μM), 100%; at PYK2 (PYK2, 10 μM) it was 100%. For the same molecule, the remaining binding at 10 µM was 18.7% on FGFR4 (FGFR4, 10 μM) and 100% at INSR (INSR, 10 μM).

Regarding `Cc1ccc(NC(=O)c2ccc(CN3CCN(C)CC3)cc2)cc1Nc1nccc(-c2cccnc2)[n+]1[Pt-2]1([Cl])[NH2+]C2CCCCC2[NH2+]1` (stereo not drawn) [1b, oxaliplatin-imatinib], the Percent control on TNK1 turned out to be 90%; on MUSK (MUSK, 10 μM) it was 100%; at TRKA (TRKA, 10 μM), 98%; at TEC (TEC, 10 μM) it was 100%; at INSRR (INSRR, 10 μM), 100%; on PYK2 (PYK2, 10 μM) it was 92%. Moreover, the Percent control on FGFR4 (FGFR4, 10 μM) is recorded as 94%; on INSR (INSR, 10 μM) it was 92%.

In the case of `C#Cc1cccc(Nc2ncnc3cc(OCCOC)c(OCCOC)cc23)c1` [Erlotinib], the remaining binding at 10 µM at TNK1 is 5.9%; at MUSK, 100%; at TRKA it was 100%; at TEC, 100%; on INSRR it was 100%; at PYK2, 100%. The remaining binding at 10 µM at FGFR4 and at INSR was 100% throughout.

With `COc1cc2c(Nc3ccc(Br)cc3F)[n+]([Pt-2]3([Cl])[NH2+]C4CCCCC4[NH2+]3)cnc2cc1OCC1CCN(C)CC1` (stereo not drawn) [3b, oxaliplatin-vandetanib], the Percent control turned out to be 90% on TNK1; 95% at MUSK (MUSK, 10 μM); 92% on TRKA (TRKA, 10 μM); 100% on TEC (TEC, 10 μM); 100% at INSRR (INSRR, 10 μM); 80% on PYK2 (PYK2, 10 μM). Moreover, the Percent control on FGFR4 (FGFR4, 10 μM) was 97%; on INSR (INSR, 10 μM) it was 72%.

In the case of `C#Cc1cccc(Nc2c3cc(OCCOC)c(OCCOC)cc3nc[n+]2[Pt@SP2-2]([NH3+])([NH3+])[Cl])c1` [2a, cisplatin-erlotinib], the Percent control at TNK1 is given as 85%; at MUSK (MUSK, 10 μM) it was 97%; on TRKA (TRKA, 10 μM) it was 94%; at TEC (TEC, 10 μM) it was 72%; at INSRR (INSRR, 10 μM), 100%; at PYK2 (PYK2, 10 μM), 90%. Moreover, the Percent control at FGFR4 (FGFR4, 10 μM) turned out to be 99%; on INSR (INSR, 10 μM), 85%.

As for `Cc1ccc(NC(=O)c2ccc(CN3CCN(C)CC3)cc2)cc1Nc1nccc(-c2cccnc2)n1` [Imatinib, reference compound], the Percent control at TNK1 is 100%; on MUSK (MUSK, 10 μM), 100%; on TRKA (TRKA, 10 μM), 100%; at TEC (TEC, 10 μM) it was 100%; at INSRR (INSRR, 10 μM), 100%; on PYK2 (PYK2, 10 μM), 100%. For the same molecule, the Percent control amounted to 100% at FGFR4 (FGFR4, 10 μM) and 100% on INSR (INSR, 10 μM).
